Key:
T-cell [1] = test: CD25 cell surface staining on T-cells co-stimulated with anti-CD3 and anti-CD28 antibody (Biological Example 2); assay type: cell-based, human; settings: Homo sapiens, T-cell, read-out: CD25 staining Anti-CD3/Anti-CD28 stimulation; for fold induction at 0.3 µM: 0.3 μM Cbl-b inhibitor; for fold induction at 1 µM: 1 μM Cbl-b inhibitor
Summary of the method: (§1)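 No assay protocol given; T-cells stimulated with anti-CD3 alone or anti-CD3 plus anti-CD28, with or without Cbl-b inhibitor. Activation read as IL-2 secretion or CD25 surface staining, expressed as fold over baseline from uninhibited cells […].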

T-cell [2] = test: IL-2 secretion from T-cells co-stimulated with anti-CD3 and anti-CD28 antibody (Biological Example 2); assay type: cell-based, human; settings: Homo sapiens, T-cell, read-out: IL-2 secretion Anti-CD3/Anti-CD28 stimulation; for fold induction at 0.3 µM: 0.3 μM Cbl-b inhibitor; for fold induction at 1 µM: 1 μM Cbl-b inhibitor
Summary of the method: as §1

Cbl-b [3] = biological target: T1, Cbl-b (Homo sapiens, UniProt Q13191); test: Cbl-b activity assay (Cbl-b inhibition assay), TR-FRET of Cbl-b interaction with UbcH5B-Ub; assay type: biochemical; settings: assay buffer with 100 mM NaCl, 60 nM Src kinase; read-out: Cbl-b activity IC50
T1 sequence (Q13191 36-427): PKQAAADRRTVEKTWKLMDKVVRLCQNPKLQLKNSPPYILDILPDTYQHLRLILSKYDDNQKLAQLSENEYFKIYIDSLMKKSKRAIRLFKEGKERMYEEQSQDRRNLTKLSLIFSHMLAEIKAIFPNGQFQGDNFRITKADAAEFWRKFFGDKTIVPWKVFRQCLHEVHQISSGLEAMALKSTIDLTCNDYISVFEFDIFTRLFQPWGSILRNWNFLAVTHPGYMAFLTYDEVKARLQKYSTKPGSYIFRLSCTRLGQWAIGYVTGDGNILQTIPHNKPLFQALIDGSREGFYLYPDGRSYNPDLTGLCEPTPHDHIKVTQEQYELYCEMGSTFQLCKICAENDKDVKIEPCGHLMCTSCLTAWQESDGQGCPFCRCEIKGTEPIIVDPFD
Summary of the method: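 TR-FRET readout of Cbl-b binding to Bodipy-fluorescein N-terminally labeled Ub conjugated to UbcH5B C85K, measured with compound present. After compound incubation, 60 nM Src kinase with 1 mM ATP and 5 mM MgCl2 (final) was added for 1.5 h, then a further 1 h incubation; asterisked values used 50 mM NaCl buffer and 30 nM Src.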

T-cell [4] = test: CD25 cell surface staining on T-cells stimulated with anti-CD3 antibody alone (Biological Example 2); assay type: cell-based, human; settings: T-cell, 1 μM Cbl-b inhibitor, read-out: CD25 staining Anti-CD3 stimulation
Cbl-b [5] = biological target: T1, Cbl-b; test: Cbl-b inhibition assay (Cbl-b activity assay, FRET, Biological Example 1; 100 mM NaCl, 60 nM Src kinase); assay type: biochemical; settings: upper bound stated in text lists; read-out: IC50 values in the Cbl-b inhibition assay of Biological Example 1
Summary of the method: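 Here, the E2 UbcH5B, irreversibly linked to Bodipy-fluorescein ubiquitin, binds Cbl-b once Src kinase phosphorylates it; Cbl-b carries an N-terminal biotinylated Avi-tag captured by streptavidin-terbium. An absent FRET signal indicates inhibition.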

T-cell [6] = test: IL-2 secretion from T-cells stimulated with anti-CD3 antibody alone (Biological Example 2); assay type: cell-based, human; settings: T-cell, 1 μM Cbl-b inhibitor, read-out: IL-2 secretion Anti-CD3 stimulation
[7] = fold change over baseline (anti-CD3/anti-CD28 stimulated T-cells without inhibitor)
[8] = Homo sapiens, fold change over baseline (anti-CD3/anti-CD28 stimulated T-cells without inhibitor)
[9] = fold change over baseline, primary human total T-cells

SMILES | fold induction at 0.3 µM (T-cell [1]; [7]) | fold induction at 1 µM (T-cell [1]; [7]) | fold induction at 0.3 µM (T-cell [2]; [7]) | fold induction at 1 µM (T-cell [2]; [7]) | IC50 (Cbl-b [3]) | fold induction at 1 µM (T-cell [4]; [8]) | IC50 (Cbl-b [5]) | fold induction at 1 µM (T-cell [6]; [8]) | fold induction at 0.3 µM (T-cell [1]; [9]) | fold induction at 1 µM (T-cell [1]; [9]) | fold induction at 0.3 µM (T-cell [2]; [9]) | fold induction at 1 µM (T-cell [2]; [9]) | fold induction at 1 µM (T-cell [4]; [9]) | fold induction at 1 µM (T-cell [6]; [9])
CC(c1cc2c(c(C3CC3)n1)CN(c1cccc(C3(Cc4nncn4C)COC3)c1)C2=O)N1CCCC1 (stereo not drawn) [Example 584, 4-Cyclopropyl-2-(3-(3-((4-methyl-4H-1,2,4-triazol-3-yl)methyl)oxetan-3-yl)phenyl)-6-(l-(pyrrolidin-1-yl)ethyl)-2,3-dihydro-1H-pyrrolo[3,4-c]pyridin-1-one] | 1.01 to 1.3 | 1.01 to 1.3 | 1.01 to 2.5 | 2.51 to 5 | < 100 nM | 0.601 to 0.8 | ≤ 100 nM | < 0.05 |  |  |  |  |  | 
Cn1cnnc1CC1(c2cccc(N3Cc4c(cc(N5CCOC5=O)cc4C(F)(F)F)C3=O)c2)COC1 [Example 561, 3-(2-(3-(3-((4-Methyl-4H-1,2,4-triazol-3-yl)methyl)oxetan-3-yl)phenyl)-3-oxo-7-(trifluoromethyl)isoindolin-5-yl)oxazolidin-2-one] | 1.01 to 1.3 | 1.01 to 1.3 | 1.01 to 2.5 | 2.51 to 5 | < 100 nM | 0.601 to 0.8 | ≤ 100 nM | < 0.05 |  |  |  |  |  | 
CN1CCN(c2cc(C(=O)Nc3cccc(C4(Cc5nncn5C)COC4)c3)nc(C3CC3)n2)CC1 [Compound 348, 2-Cyclopropyl-N-(3-(3-((4-methyl-4H-1,2,4-triazol-3-yl)methyl)oxetan-3-yl)phenyl)-6-(4-methylpiperazin-1-yl)pyrimidine-4-carboxamide] |  |  |  |  | < 100 nM |  | ≤ 100 nM |  | 1.31 to 1.5 | 1.31 to 1.5 | 2.51 to 5 | > 7.5 | 0.801 to 1 | > 0.201
Cn1cnnc1[C@@H](F)C1(c2cccc(N3Cc4c(cc(CN5CCCC5)cc4C(F)(F)F)C3=O)c2)COC1 [Example 673a, (S)-2-(3-(3-(fluoro(4-methyl-4H-1,2,4-triazol-3-yl)methyl)oxetan-3-yl)phenyl)-6-(pyrrolidin-1-ylmethyl)-4-(trifluoromethyl)isoindolin-1-one] | > 1.76 | > 1.76 | 5 to 7.5 | > 7.5 | < 100 nM | 0.801 to 1 | ≤ 100 nM | > 0.201 |  |  |  |  |  | 
CC(c1cc(C(=O)Nc2cccc(C3(Cc4nncn4C)COC3)c2)nc(C2CC2)n1)N1CCC2(CC2)C1 (stereo in doubt) [Example 592a, (R)-6-(1-(5-azaspiro[2.4]heptan-5-yl)ethyl)-2-cyclopropyl-N-(3-(3-((4-methyl-4H-1,2,4-triazol-3-yl)methyl)oxetan-3-yl)phenyl)pyrimidine-4-carboxamide] | 1.01 to 1.3 | 1.01 to 1.3 | 5 to 7.5 | > 7.5 | < 100 nM | > 1 | ≤ 100 nM | > 0.201 |  |  |  |  |  | 
Cn1cnnc1[C@H](F)C1(c2cccc(N3Cc4c(cc(CN5CCCC5)cc4C(F)(F)F)C3=O)c2)COC1 [Example 673b, (R)-2-(3-(3-(fluoro(4-methyl-4H-1,2,4-triazol-3-yl)methyl)oxetan-3-yl)phenyl)-6-(pyrrolidin-1-ylmethyl)-4-(trifluoromethyl)isoindolin-1-one] | 1.31 to 1.5 | 1.31 to 1.5 | > 7.5 | > 7.5 | < 100 nM | > 1 | ≤ 100 nM | > 0.201 |  |  |  |  |  | 
CN1CC2CC(C1)N2c1cc(C(=O)Nc2cccc(C3(Cc4nncn4C)COC3)c2)nc(C2CC2)n1 [Example 572, 2-Cyclopropyl-N-(3-(3-((4-methyl-4H-1,2,4-triazol-3-yl)methyl)oxetan-3-yl)phenyl)-6-(3-methyl-3,6-diazabicyclo[3.1.1]heptan-6-yl)pyrimidine-4-carboxamide] | 1.31 to 1.5 | 1.31 to 1.5 | > 7.5 | > 7.5 | < 100 nM | > 1 | ≤ 100 nM | > 0.201 |  |  |  |  |  | 
CN1CCN(Cc2cc3c(c(C(F)(F)F)c2)CN(c2cccc(C4(Cc5nncn5C)COC4)c2)C3=O)CC1 [Example 625, 2-(3-(3-((4-methyl-4H-1,2,4-triazol-3-yl)methyl)oxetan-3-yl)phenyl)-6-((4-methylpiperazin-1-yl)methyl)-4-(trifluoromethyl)isoindolin-1-one] | 1.31 to 1.5 | 1.31 to 1.5 | 2.51 to 5 | > 7.5 | < 100 nM | > 1 | ≤ 100 nM | > 0.201 |  |  |  |  |  | 
Cn1cnnc1CC1(c2cccc(N3Cc4c(cc(C5CCC5)cc4C(F)(F)F)C3=O)c2)COC1 [Example 611, 6-cyclobutyl-2-(3-(3-((4-methyl-4H-1,2,4-triazol-3-yl)methyl)oxetan-3-yl)phenyl)-4-(trifluoromethyl)isoindolin-1-one] | 1.01 to 1.3 | 1.31 to 1.5 | 2.51 to 5 | 2.51 to 5 | < 100 nM | 0.801 to 1 | ≤ 100 nM | 0.101 to 0.15 |  |  |  |  |  | 
Cn1cnnc1CC1(c2cccc(N3Cc4c(ccc(F)c4C4CC4)C3=O)c2)COC1 [Example 577, 4-Cyclopropyl-5-fluoro-2-(3-(3-((4-methyl-4H-1,2,4-triazol-3-yl)methyl)oxetan-3-yl)phenyl)isoindolin-1-one] | 1.01 to 1.3 | 1.01 to 1.3 | 1.01 to 2.5 | 1.01 to 2.5 | 100 to 300 nM | 0.601 to 0.8 | ≤ 300 nM | 0.051 to 0.1 |  |  |  |  |  | 
Cn1cnnc1CC1(c2cccc(N3Cc4c(cc(C5CN6CCC5CC6)cc4C(F)(F)F)C3=O)c2)COC1 (centres unmarked) [Example 560, 2-(3-(3-((4-methyl-4H-1,2,4-triazol-3-yl)methyl)oxetan-3-yl)phenyl)-6-(quinuclidin-3-yl)-4-(trifluoromethyl)isoindolin-1-one] | 1.01 to 1.3 | 1.01 to 1.3 | 2.51 to 5 | 5 to 7.5 | < 100 nM | 0.601 to 0.8 | ≤ 100 nM | < 0.05 |  |  |  |  |  | 
Cn1cnnc1CC1(c2cccc(N3Cc4c(cc(C5=CCOC5)cc4C(F)(F)F)C3=O)c2)COC1 [Example 612, 6-(2,5-dihydrofuran-3-yl)-2-(3-(3-((4-methyl-4H-1,2,4-triazol-3-yl)methyl)oxetan-3-yl)phenyl)-4-(trifluoromethyl)isoindolin-1-one] | 1.01 to 1.3 | 1.31 to 1.5 | 2.51 to 5 | 2.51 to 5 | < 100 nM | 0.801 to 1 | ≤ 100 nM | 0.101 to 0.15 |  |  |  |  |  | 
CCOc1cc(NC(=O)c2cc(C)nc(C3CC3)n2)cc(C2(Cc3nncn3C)COC2)c1 [Example 690, 2-cyclopropyl-N-(3-ethoxy-5-(3-((4-methyl-4H-1,2,4-triazol-3-yl)methyl)oxetan-3-yl)phenyl)-6-methylpyrimidine-4-carboxamide] | 1.01 to 1.3 | 1.01 to 1.3 | 2.51 to 5 | 5 to 7.5 | < 100 nM | 0.801 to 1 | ≤ 100 nM | 0.051 to 0.1 |  |  |  |  |  | 

Reference: US20220324835A1 (Nurix Therapeutics, Inc., priority 2018, published 2022)
